The AC50 is the concentration at which the activity in the assay is half-maximal. What is called CC50 is the concentration giving 50% cytotoxicity.

For ten molecules, IC50, AC50 and CC50 results are on record in ChEMBL document CHEMBL1201862, “PubChem BioAssay data set” (2004).

SMILES strings stand for the structures. Activity calls are given as the source filed them.

The target of test [1] is Estrogen receptor beta (Homo sapiens, UniProt Q92731).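 Note: recombinant ER-beta bound to coactivator SRC1 peptide in presence of estradiol agonist; inhibitors block coactivator peptide binding and lower the FRET signal.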
In test [2] the target is Mitogen-activated protein kinase 10 (Homo sapiens, UniProt P53779). As to the kind of experiment: Dose response biochemical screening assay for inhibitors of c-Jun N-Terminal Kinase 3 (JNK3). [Related pubchem assays: 746 ].
Test [3] can be described thus: inhibitors of Vif binding to APOBEC3G peptide, primary screen, biochemical, TR-FRET, GST-Vif 1-94, biotin-A3G peptide, dose response retest (AID 1117319).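 Note: TR-FRET signal of purified GST-Vif binding a biotinylated A3G peptide; inhibitors lower the FRET signal by blocking Vif and A3G binding.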 In kind it is functional.
A short description of test [4]: cells. In kind it is functional.
Test [5] is described as follows: Jurkat T cell cytotoxicity, dose response, cytotoxicity control for P. falciparum gametocyte viability project, luminescence (AID 1117277).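 Note: potency reflects loss of cellular ATP meaning fewer viable cells.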 In kind it is functional, cell-based.
Test [6] in a line: P. falciparum late gametocyte killing, dose response, luminescence (AID 1117278).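 Note: gametocytes exposed to compound for 24 hours.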 It is filed as functional, cell-based.
Test [7] relates to INS1. The test is described as follows: beta cell apoptosis inhibitors, cytokine rescue, dose response, luminescence, retest (AID 449756).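 Note: cell death triggered by IL-1 beta plus TNF-alpha plus IFN-gamma mixture; protective hits raise ATP signal compared with cytokine alone wells.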 In kind it is functional, cell-based. The settings on record: Rattus norvegicus.
Test [8] addresses T1, Calpain-2 catalytic subunit (Sus scrofa, UniProt P43367).
T1 sequence (P43367 whole entry): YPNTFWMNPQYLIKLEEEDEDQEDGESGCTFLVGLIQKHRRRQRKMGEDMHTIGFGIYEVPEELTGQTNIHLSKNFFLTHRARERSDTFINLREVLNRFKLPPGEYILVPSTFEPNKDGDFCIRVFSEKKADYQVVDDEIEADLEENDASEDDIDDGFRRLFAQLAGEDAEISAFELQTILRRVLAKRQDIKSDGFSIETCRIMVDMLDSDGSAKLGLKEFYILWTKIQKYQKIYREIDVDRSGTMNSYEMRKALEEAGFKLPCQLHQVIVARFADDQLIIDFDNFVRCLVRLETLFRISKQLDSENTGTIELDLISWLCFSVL
The test is described as follows: pig calpain II inhibitor potency, dose response, biochemical, fluorogenic peptide substrate (AID 1420). In kind it is functional.

Test [9] deals with T2, Small ubiquitin-related modifier 1 (Homo sapiens, UniProt P63165). The test is described as follows: inhibitors of SUMO1 peptide binding, dose response, biochemical, fluorescence polarization, uHTS hits (AID 624382). In kind it is functional. The settings on record: read-out: IC50_Mean. On the technique in general: In fluorescence polarisation assays a small probe gives low polarisation when free and higher when bound to something large.

Test [10] concerns the target T3, Rac GTPase-activating protein 1 (Homo sapiens, UniProt Q9H0H5).
T3 sequence (Q9H0H5 whole entry): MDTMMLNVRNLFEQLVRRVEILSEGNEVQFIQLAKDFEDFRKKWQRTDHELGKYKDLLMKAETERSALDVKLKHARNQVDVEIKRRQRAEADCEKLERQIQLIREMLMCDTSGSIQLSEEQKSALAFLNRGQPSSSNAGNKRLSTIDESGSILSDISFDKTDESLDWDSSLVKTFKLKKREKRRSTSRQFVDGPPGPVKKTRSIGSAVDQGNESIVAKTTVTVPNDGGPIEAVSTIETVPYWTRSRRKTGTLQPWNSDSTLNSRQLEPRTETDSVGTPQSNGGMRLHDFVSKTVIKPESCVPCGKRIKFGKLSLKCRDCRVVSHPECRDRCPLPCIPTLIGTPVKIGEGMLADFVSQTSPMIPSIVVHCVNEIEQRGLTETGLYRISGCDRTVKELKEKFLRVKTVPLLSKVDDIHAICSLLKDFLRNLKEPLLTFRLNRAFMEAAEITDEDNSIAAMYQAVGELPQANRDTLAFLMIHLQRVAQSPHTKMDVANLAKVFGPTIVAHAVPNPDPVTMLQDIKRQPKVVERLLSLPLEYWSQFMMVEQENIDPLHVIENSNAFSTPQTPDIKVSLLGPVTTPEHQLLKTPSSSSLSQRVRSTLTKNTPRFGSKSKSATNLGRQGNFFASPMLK
As to the kind of experiment: MgcRacGAP GTPase-activating activity inhibitors, confirmation, biochemical, ADP Hunter fluorescence, primary and confirmatory (AID 624330). It is filed as functional.

Test [11] has as its target T2, Small ubiquitin-related modifier 1. The test is described as follows: inhibitors of SUMO1 partner interactions, dose response, biochemical, FRET (AID 624383). Conditions: read-out: IC50_Mean. It is filed as functional.
Test [12] concerns the target Eukaryotic translation initiation factor 4E (Mus musculus, UniProt P63073). The test is described as follows: eIF4E–eIF4G protein interaction inhibitors, dose response, biochemical, TR-FRET (AID 855).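 Note: potency for disrupting eIF4E binding to eIF4GI seen as loss of FRET.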 In kind it is functional.
A short description of test [13]: THP-1 cell cytotoxicity, dose response, cytotoxicity control for Vif-APOBEC3G degradation inhibitor project, THP-1 cells (AID 1117359). In kind it is functional. Conditions: Human immunodeficiency virus 1, THP-1.
For test [14], the target named is Induced myeloid leukemia cell differentiation protein Mcl-1 (Homo sapiens, UniProt Q07820). In kind it is functional.
The target of test [15] is T4, ORF 73 (Human herpesvirus 8, UniProt O40947).
T4 sequence (O40947 whole entry): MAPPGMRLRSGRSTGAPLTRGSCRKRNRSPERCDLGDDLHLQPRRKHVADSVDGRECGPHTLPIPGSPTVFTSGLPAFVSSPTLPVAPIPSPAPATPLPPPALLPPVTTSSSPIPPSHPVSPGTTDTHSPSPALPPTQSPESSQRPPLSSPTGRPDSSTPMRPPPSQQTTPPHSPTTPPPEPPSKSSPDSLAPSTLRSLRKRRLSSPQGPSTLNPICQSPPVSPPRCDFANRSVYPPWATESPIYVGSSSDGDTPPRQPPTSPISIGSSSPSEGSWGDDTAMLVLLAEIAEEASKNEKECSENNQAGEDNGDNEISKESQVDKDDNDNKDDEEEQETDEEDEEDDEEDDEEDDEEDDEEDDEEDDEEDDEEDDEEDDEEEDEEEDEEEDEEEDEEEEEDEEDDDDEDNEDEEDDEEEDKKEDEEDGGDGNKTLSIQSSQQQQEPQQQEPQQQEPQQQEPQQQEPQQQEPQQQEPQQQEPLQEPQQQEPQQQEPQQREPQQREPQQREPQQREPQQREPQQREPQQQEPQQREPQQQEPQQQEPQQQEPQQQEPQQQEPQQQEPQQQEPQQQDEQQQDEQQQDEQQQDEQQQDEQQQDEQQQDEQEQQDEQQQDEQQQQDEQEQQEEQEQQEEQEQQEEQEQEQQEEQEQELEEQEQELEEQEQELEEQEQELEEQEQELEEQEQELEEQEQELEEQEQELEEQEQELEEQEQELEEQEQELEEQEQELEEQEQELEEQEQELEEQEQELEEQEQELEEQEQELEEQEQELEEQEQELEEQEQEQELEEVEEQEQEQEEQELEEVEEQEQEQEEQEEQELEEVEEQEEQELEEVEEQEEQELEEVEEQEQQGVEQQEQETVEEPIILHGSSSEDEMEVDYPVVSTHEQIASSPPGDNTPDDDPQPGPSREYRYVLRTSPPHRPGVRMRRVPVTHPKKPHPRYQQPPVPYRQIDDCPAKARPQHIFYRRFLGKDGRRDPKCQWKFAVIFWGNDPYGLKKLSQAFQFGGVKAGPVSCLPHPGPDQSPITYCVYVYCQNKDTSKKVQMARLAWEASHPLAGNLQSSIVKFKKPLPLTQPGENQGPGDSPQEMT
The test is described as follows: inhibitors of C-LANA binding to LBS DNA, dose response, biochemical, fluorescence polarization, cherry-picked samples (AID 504725).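 Note: fluorescence polarization of a labeled DNA duplex reporting LANA DNA binding; potency is for inhibitors that block LANA binding to the DNA.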 Details: species or system Human gammaherpesvirus 8.

Test [16] concerns the target T5, Histone-lysine N-methyltransferase NSD2 (Homo sapiens, UniProt O96028).
T5 sequence (O96028 whole entry): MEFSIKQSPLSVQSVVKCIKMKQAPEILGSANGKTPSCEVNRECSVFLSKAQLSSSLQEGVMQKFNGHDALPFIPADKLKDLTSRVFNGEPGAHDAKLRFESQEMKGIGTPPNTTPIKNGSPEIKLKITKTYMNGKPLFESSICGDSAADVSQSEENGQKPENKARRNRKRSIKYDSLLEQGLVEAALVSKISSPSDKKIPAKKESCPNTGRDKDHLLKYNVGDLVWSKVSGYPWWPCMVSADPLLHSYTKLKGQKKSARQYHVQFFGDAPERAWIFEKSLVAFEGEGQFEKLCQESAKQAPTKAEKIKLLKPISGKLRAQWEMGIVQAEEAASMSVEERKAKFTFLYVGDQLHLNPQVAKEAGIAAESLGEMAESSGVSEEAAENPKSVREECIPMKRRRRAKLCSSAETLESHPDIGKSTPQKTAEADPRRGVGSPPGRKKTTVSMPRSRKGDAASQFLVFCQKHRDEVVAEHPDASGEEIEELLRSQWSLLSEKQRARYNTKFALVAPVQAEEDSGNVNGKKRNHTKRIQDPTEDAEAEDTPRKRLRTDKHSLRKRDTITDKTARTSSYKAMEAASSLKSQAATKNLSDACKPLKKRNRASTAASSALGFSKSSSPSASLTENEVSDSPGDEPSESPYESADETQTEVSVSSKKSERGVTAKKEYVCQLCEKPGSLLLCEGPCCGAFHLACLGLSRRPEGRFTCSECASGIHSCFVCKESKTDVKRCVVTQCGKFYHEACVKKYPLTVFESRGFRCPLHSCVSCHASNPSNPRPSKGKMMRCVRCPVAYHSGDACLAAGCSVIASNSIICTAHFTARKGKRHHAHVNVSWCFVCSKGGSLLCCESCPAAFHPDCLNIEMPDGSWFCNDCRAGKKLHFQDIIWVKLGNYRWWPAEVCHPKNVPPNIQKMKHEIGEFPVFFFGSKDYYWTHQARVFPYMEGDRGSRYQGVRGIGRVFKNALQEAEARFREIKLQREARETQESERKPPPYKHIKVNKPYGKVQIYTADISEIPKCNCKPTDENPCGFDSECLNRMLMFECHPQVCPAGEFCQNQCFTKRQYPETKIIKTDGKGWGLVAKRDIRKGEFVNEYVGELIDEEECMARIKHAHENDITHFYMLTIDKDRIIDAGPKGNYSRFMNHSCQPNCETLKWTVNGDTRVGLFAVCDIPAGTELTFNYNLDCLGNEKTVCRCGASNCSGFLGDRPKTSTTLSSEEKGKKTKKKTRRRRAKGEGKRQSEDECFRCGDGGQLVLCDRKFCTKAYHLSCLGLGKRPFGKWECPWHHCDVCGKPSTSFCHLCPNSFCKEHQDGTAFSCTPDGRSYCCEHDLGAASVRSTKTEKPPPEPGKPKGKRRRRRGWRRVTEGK
It is filed as biochemical.

In test [17] the target is Nonstructural protein 1 (Influenza A virus, UniProt Q194T2). It is filed as functional, Influenza A virus (A/California/07/2009(H1N1)).
The target in test [18] is T6, Polyadenylate-binding protein 1 (Homo sapiens, UniProt P11940). As to the kind of experiment: PABP1 MLLE–PAM2 interaction inhibitors, dose response, miRNA deadenylation inhibitor project, biochemical, fluorescence polarization, Cy5-PAM2 peptide, secondary (AID 602260). Conditions: read-out: IC50_Mean. It is filed as functional.
Test [19] deals with T6, Polyadenylate-binding protein 1. The test is described as follows: PABP1 MLLE–PAM2 binding inhibitor potency, dose response, biochemical, fluorescence polarization, FITC-PAM2 peptide (AID 602259). In kind it is functional. Conditions: read-out: IC50_Mean.

Chain of Estrogen receptor beta (Q92731 whole entry): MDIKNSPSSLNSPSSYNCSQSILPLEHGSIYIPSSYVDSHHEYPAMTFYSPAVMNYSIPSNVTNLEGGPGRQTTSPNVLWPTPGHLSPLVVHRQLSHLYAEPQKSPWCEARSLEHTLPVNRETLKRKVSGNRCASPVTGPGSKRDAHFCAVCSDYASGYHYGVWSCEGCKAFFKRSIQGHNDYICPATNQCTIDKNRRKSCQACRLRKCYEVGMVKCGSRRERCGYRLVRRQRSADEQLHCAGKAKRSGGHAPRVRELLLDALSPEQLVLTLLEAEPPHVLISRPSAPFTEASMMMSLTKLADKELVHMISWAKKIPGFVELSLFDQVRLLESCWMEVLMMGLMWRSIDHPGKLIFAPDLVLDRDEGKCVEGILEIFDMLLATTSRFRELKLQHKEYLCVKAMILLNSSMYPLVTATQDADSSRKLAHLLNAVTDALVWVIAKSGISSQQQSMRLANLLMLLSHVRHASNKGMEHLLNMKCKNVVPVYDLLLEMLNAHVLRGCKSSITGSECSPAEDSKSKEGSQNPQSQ
Chain of Mitogen-activated protein kinase 10 (P53779 whole entry): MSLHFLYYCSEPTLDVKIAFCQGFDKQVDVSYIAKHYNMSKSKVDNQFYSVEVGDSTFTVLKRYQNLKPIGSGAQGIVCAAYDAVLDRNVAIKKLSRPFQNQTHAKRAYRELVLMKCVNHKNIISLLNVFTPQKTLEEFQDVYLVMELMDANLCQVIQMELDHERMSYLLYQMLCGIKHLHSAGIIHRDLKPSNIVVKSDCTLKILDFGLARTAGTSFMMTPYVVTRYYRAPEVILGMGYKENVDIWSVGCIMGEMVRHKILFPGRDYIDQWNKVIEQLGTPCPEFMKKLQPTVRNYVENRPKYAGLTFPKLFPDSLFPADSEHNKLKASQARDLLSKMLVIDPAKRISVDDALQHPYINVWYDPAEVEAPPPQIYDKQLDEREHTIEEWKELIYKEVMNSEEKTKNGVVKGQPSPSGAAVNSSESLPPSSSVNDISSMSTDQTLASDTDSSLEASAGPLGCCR
T6 sequence (P11940 whole entry): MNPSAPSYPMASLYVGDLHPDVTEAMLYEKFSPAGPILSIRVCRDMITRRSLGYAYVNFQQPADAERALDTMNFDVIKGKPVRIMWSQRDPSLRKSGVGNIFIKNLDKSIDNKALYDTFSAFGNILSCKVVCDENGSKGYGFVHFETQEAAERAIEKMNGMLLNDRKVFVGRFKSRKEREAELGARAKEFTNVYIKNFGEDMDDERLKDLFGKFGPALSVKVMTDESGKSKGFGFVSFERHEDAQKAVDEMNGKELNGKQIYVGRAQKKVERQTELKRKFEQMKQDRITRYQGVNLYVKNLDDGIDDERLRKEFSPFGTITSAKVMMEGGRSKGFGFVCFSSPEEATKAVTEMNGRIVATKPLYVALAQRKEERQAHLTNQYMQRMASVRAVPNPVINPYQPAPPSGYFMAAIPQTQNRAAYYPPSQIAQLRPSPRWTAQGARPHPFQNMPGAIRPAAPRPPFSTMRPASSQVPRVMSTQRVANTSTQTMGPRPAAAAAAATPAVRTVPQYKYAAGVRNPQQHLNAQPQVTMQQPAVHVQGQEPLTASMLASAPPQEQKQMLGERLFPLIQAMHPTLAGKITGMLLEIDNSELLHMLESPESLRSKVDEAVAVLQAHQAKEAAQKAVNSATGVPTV
T2 sequence (P63165 whole entry): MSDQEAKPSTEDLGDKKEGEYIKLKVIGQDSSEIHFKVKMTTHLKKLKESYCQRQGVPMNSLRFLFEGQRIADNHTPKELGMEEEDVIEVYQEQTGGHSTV
Chain of Nonstructural protein 1 (Q194T2 whole entry): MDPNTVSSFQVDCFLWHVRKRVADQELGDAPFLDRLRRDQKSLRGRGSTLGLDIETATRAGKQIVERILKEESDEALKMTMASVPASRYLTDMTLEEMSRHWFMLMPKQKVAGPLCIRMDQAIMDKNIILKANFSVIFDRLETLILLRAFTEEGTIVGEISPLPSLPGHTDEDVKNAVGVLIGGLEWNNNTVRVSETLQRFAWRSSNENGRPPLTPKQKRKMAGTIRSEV
Chain of Eukaryotic translation initiation factor 4E (P63073 whole entry): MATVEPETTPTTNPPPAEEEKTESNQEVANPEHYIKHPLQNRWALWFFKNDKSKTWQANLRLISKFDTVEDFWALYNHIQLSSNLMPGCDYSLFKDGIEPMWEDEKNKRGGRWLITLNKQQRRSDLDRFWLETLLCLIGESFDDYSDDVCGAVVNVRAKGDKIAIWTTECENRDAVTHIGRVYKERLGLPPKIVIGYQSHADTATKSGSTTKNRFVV
Chain of Induced myeloid leukemia cell differentiation protein Mcl-1 (Q07820 whole entry): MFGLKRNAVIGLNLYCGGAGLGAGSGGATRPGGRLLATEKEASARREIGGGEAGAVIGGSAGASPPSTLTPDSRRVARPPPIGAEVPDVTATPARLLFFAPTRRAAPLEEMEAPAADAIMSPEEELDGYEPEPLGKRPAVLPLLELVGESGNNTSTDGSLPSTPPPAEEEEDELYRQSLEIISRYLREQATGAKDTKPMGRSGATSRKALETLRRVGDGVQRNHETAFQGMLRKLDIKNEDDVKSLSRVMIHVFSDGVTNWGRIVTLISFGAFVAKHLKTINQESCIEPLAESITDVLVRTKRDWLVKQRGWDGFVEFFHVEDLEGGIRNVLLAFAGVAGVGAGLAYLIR

Turning to `CSc1ccccc1NC(=O)c1ccccc1N(Cc1ccccc1)S(C)(=O)=O`, the IC50 in test [1] is > 50 µM (not active).
In the case of `Cc1ccc(Nc2cc(-n3nc(C)cc3C)ncn2)cc1`, the IC50 in test [2] was 13.4 µM (not active).
Take `CCn1c(S)nnc1Cc1c(C)[nH]c2ccccc12`: in [3], the IC50 is > 100 µM (active).
Consider `Cc1ccccc1NC(=O)c1[nH]cnc1C(=O)NCc1ccccc1`, for which the figures for the IC50 in test [4] and in test [2] were 10.3 µM (active) and > 31 µM (not active), respectively.
For `Cc1ccc(-c2csc3nc(CN(C)Cc4ccccc4)nc(O)c23)cc1`, the IC50 was > 83.2 µM (inactive) in [5] and > 109 µM (inactive) in test [6].
As to `O=C(Cc1cccs1)Nc1nncs1`, the IC50 in [1] was 17 µM (active).
As for `O=C(CN1CC[n+]2c(-c3cccs3)csc21)c1ccc(-c2ccccc2)cc1`, the results for the IC50 in test [5], in test [8] and in test [6] were > 83.3 µM (inactive), 22.1 µM (not active) and > 109 µM (inactive), respectively. In test [7], the AC50 was 2.39 µM (active).
With `N#Cc1c(SCC(N)=O)nc2c(c1-c1ccncc1)CCCC2`, the IC50 in [5] is > 83.3 µM (inactive); in test [6], > 109 µM (inactive).
Consider `CSc1ccc(/C=N/Nc2cccc(C(=O)O)c2)cc1`, for which the IC50 is > 66.6 µM (inactive) in [9]; 83.5 µM (active) in test [10]; 6.71 µM (active) in test [11]; 50 µM (inactive) in test [12]; 2.19 µM (active) in test [14]. The CC50 in test [13] was > 40 µM (active). The AC50 in [15] was 19.8 µM (active); in test [16], 2.93 µM (active).
As to `CCOC(=O)c1c(N)sc(=S)c2c1CCC2`, the IC50 is > 100 µM (active) in [17], > 66 µM (inactive) in test [18], > 50 µM (not active) in test [1] and > 66 µM (inactive) in test [19].
